{
  "source": "patent US20030148963A1",
  "about": "(priority 2000, published 2003)",
  "key": {"[1]": {"test_system": "S. aureus-induced arthritis", "description": "NMRI mice of both sexes, 6-8 weeks old, were obtained from B&K Universal AB (Stockholm, Sweden). They were housed in the animal facility of the Department of Rheumatology, University of Göteborg, under standard conditions of light and temperature and fed standard laboratory chow and water ad libitum.\nS. aureus LS-1 strain was originally isolated from a swollen joint of a spontaneously arthritic NZB/W mouse. The bacteria were cultured for […] on blood agar plates, replated for another 24 h, washed and kept frozen at −20° C. in PBS containing 5% bovine serum albumin ([…]) and 10% dimethyl sulfoxide ([…]) until used. Before use, the bacterial solution was thawed and washed in PBS. Viable count was done to check the number of bacteria in each bacterial solution mice were given i.v. injections (in the tail vein) of 0.2 ml of bacterial solution\nAll the mice were monitored individually. Their limbs were inspected visually every day during the experiment. Arthritis was defined as visible joint erytbema and/or swelling of at least one joint. To evaluate the intensity of arthritis, a clinical scoring system of 0 to 3 points for each limb was used (1 point, mild swelling and/or erytema; 2 points, moderate swelling and erythema; 3 points, marked swelling and erytema). The arthritic index was constructed by adding the scores from all four limbs for each animal. Previous study has shown that there is a good correlation between the clinical and histopathological appearance of arthritis. The overall condition of each mouse was evaluated by assessing its weight, general appearance, alertness, and skin abnormalities."}, "[2]": {"test_system": "IL-6", "assay": "Serum IL-6 in S. aureus infected mice (B9 bioassay)", "assay_type": "in vivo, NMRI mice", "settings": "six days after 1.4×10^7 CFU S. aureus; 12.5 mg/kg from three days prior; mean ± SEM, n = 6", "description": "The cell line B 13,29, subclone B9, which is dependent on IL-6 for its growth, was used for IL-6 determinations. The cells were seeded into microtiter plates at a concentration of 5000 cells/well and samples in different dilutions were added. One μCi of (3H) TdR (Amersham) was added after 68 h of culture, and the cells were harvested 4 h later. The results were compared with recombinant IL-6 standard (Genzyme, Cambridge, Mass.). The B9 cells were previously shown not to react with several recombinant cytolines including IL.-1, IL.-, L-2, IL-3, IL-5, granulocyte/macrophage CS17, TNF.-, and IFN.-, There was only a weak reactivity with IL-4 [14]."}, "[3]": {"test_system": "spleen mononuclear cells", "assay_type": "cell-based, NMRI mice", "settings": "spleen cells from naive mice, etoposide 1, 10, 100 μM; FIG. 2"}, "[4]": {"test_system": "collagen induced arthritis (CIA)", "assay": "Collagen induced arthritis, histopathological examination of joints", "assay_type": "in vivo, B10.QxDBA/1 female mice", "description": "Histopathological examination was performed after routine fixation, decalcification, paraffin embedding, and staining with hematoxylin and eosin. All the slides were coded and the joints were studied with regard to synovial hypertrophy (defined as a synovial membrane thickness of more than two cell layers), pannus formation (synovial tissue overlaying the joint cartilage), and cartilage and bone destruction (loss of tissue integrity with resulting ingrowth of fibrotic tissue) (11). The severity of synovial hypertrophy and cartilage/bone destruction was scored from 0 (intact synovial, cartilage/bone tissue) to 3 (intense synovitis with total destruction of cartilage and/or bone)."}, "[5]": {"test_system": "peripheral leukocytes", "assay": "Peripheral blood cell count in naive mice", "assay_type": "in vivo", "settings": "12.5 mg/kg 4 days per week for 4 weeks, 3 days after last treatment", "description": "Mice were bled from the tail into heparinized tubes at different time-points. The leukocytes were counted in a hemacytometer (Toa Medical Electronics, Kobe, Japan). Fifty microliters of the heparinized blood was analyzed in a FACScan cytometer (Becton Dickinson, San Jose, Calif.) to determine the percentages of lymphocytes, granulocytes, and monocytes. The absolute numbers of different leukocyte subsets were then calculated from the total leukocyte counts."}, "[6]": {"test_system": "draining lymph node cells", "assay": "Draining lymph node response after CII immunization", "assay_type": "in vivo, mice"}, "[7]": {"test_system": "TNF", "assay": "TNF release by IC-21 macrophage cell line", "assay_type": "cell-based, murine", "description": "Levels of TNF, IL-1b, RANTES, and macrophage inflammatory protein (MIP)-1α were determined using sandwich ELISA from R&D Systems (Minneapolis, Minn.).\nThese cells display many typical features of the macrophage phenotype and are therefore a suitable model for studying cytoline and chemokine release during inflammation (16). The cells were maintained in continous culture using RPMI-1640 supplemented with 10% FCS, L-glutamine, and gentamycin. When the cells had grown to about 70% confluency, they were seeded into a 24-well-plate (Nunc) at a concentration of 1×10^5 per well and incubated at 37° C. in 5% CO2 for 24 h. […] After 24 h of incubation, the cells were washed once with PBS, and reincubated with medium containing different concentrations (1, 10, 100, 1000 ng/ml) of LPS (Difco) and IFN-γ (10, 50, 100 u/nml). The interferon-γ was purified from the supernatants from Chinese hanater ovary (CHO) cells transfected with the murine IFN-γ gene (hybridoma kindly provided by Dr. Morris, Department of Biological Sciences, University of Warwick, Coventry, UK). After 2 and 24 h of incubation the supernatants were collected and stored at −20° C. until analysis."}, "[8]": {"test_system": "IL-1α", "assay": "IL-1 release by IC-21 macrophage cell line", "assay_type": "cell-based, murine"}, "[9]": {"settings": "Etoposide pretreated, n 16, day 61"}, "[10]": {"settings": "Etoposide treated (from day 40), n 17, day 61, mean ± SEM"}},
  "note": "Marks after values point to notes of the source that are not given here.",
  "data": [
    {"molecule": "COc1cc([C@@H]2c3cc4c(cc3[C@@H](O[C@@H]3O[C@@H]5CO[C@@H](C)O[C@H]5[C@H](O)[C@H]3O)[C@H]3COC(=O)[C@H]23)OCO4)cc(OC)c1O", "note": "[Etoposide]", "values": [
      {"measurement": "Mortality", "setting": "[1]; 1-2×10^7 CFU S. aureus, starting four days after inoculation, FIG. 1B", "result": "higher mortality than the controls"},
      {"measurement": "Weight loss", "setting": "[1]; S. aureus infected mice vs controls, data not shown", "result": "more prominent"},
      {"measurement": "Frequency of clinical signs of arthritis", "setting": "[1]; six days after inoculation, 1-2×10^7 CFU S. aureus, controls 70%", "result": 35, "unit": "%"},
      {"measurement": "Mice died", "setting": "[1]; suboptimal dose of bacteria 1×10^6 CFU, 8 days after inoculation, controls 1 out of 10", "result": "6 out of 10"},
      {"measurement": "Serum IL-6", "setting": "[2]", "result": "11.927 ± 4.610^b pg/ml"},
      {"measurement": "Proliferative responses to Con A and TSST-1", "setting": "[3]", "result": "significantly decreased upon increasing concentrations"},
      {"measurement": "Cartilage/bone destruction score", "setting": "[4]; [9]", "result": 0},
      {"measurement": "Synovial hypertrophy score", "setting": "[4]; [9]", "result": 0},
      {"measurement": "Cartilage/bone destruction score", "setting": "[4]; [10]", "result": "4.5 ± 2.4"},
      {"measurement": "Synovial hypertrophy score", "setting": "[4]; [10]", "result": "2.4 ± 1.1"},
      {"measurement": "Numbers of granulocytes", "setting": "[5]", "result": "1.1±0.4 ×10^4/ml"},
      {"measurement": "Numbers of monocytes", "setting": "[5]", "result": "71±28 ×10^4/ml"},
      {"measurement": "Numbers of B cells, T cells, macrophages and germinal centers in inguinal lymph nodes", "setting": "[6]; 10 days after CII immunization, immunohistochemical stainings", "result": "no significant effects on numbers"},
      {"measurement": "Antibodies to CII in lymph node cell cultures", "setting": "[6]; lymph node cells challenged in vitro with CII, vs PBS controls", "result": "not produced at all"},
      {"measurement": "T cell functions (proliferation, IFN-γ secretion) of lymph node cells", "setting": "[6]; lymph node cells challenged in vitro with CII, data not shown", "result": "no difference in T cell functions"},
      {"measurement": "Levels of TNF in supernatants", "setting": "[7]; etoposide 0.01 μM 24 h, then IFN-γ 10 u/ml 24 h", "result": 52, "unit": "pg/mL"},
      {"measurement": "Levels of TNF in supernatants", "setting": "[7]; etoposide 0.01 μM 24 h, then IFN-γ 50 u/ml 24 h", "result": 56, "unit": "pg/mL"},
      {"measurement": "Levels of TNF in supernatants", "setting": "[7]; etoposide 0.01 μM 24 h, then IFN-γ 100 u/ml 24 h", "result": 65, "unit": "pg/mL"},
      {"measurement": "Levels of TNF in supernatants", "setting": "[7]; etoposide 0.01 μM 24 h, then LPS 0 ng/ml 24 h", "result": 66, "unit": "pg/mL"},
      {"measurement": "Levels of TNF in supernatants", "setting": "[7]; etoposide 0.01 μM 24 h, then LPS 1 ng/ml 24 h", "result": 207, "unit": "pg/mL"},
      {"measurement": "Levels of TNF in supernatants", "setting": "[7]; etoposide 0.01 μM 24 h, then LPS 10 ng/ml 24 h", "result": 3050, "unit": "pg/mL"},
      {"measurement": "Levels of TNF in supernatants", "setting": "[7]; etoposide 0.01 μM 24 h, then LPS 100 ng/ml 24 h", "result": 11900, "unit": "pg/mL"},
      {"measurement": "Levels of TNF in supernatants", "setting": "[7]; etoposide 0.01 μM 24 h, then LPS 1000 ng/ml 24 h", "result": 12375, "unit": "pg/mL"},
      {"measurement": "Levels of TNF in supernatants", "setting": "[7]; etoposide 0.1 μM 24 h, then IFN-γ 10 u/ml 24 h", "result": 20, "unit": "pg/mL"},
      {"measurement": "Levels of TNF in supernatants", "setting": "[7]; etoposide 0.1 μM 24 h, then IFN-γ 50 u/ml 24 h", "result": 32, "unit": "pg/mL"},
      {"measurement": "Levels of TNF in supernatants", "setting": "[7]; etoposide 0.1 μM 24 h, then IFN-γ 100 u/ml 24 h", "result": 34, "unit": "pg/mL"},
      {"measurement": "Levels of TNF in supernatants", "setting": "[7]; etoposide 0.1 μM 24 h, then LPS 0 ng/ml 24 h", "result": 24, "unit": "pg/mL"},
      {"measurement": "Levels of TNF in supernatants", "setting": "[7]; etoposide 0.1 μM 24 h, then LPS 1 ng/ml 24 h", "result": 72, "unit": "pg/mL"},
      {"measurement": "Levels of TNF in supernatants", "setting": "[7]; etoposide 0.1 μM 24 h, then LPS 10 ng/ml 24 h", "result": 1125, "unit": "pg/mL"},
      {"measurement": "Levels of TNF in supernatants", "setting": "[7]; etoposide 0.1 μM 24 h, then LPS 100 ng/ml 24 h", "result": 2325, "unit": "pg/mL"},
      {"measurement": "Levels of TNF in supernatants", "setting": "[7]; etoposide 0.1 μM 24 h, then LPS 1000 ng/ml 24 h", "result": 3650, "unit": "pg/mL"},
      {"measurement": "Levels of IL-1α", "setting": "[8]", "result": "No major differences"}
    ]}
  ]
}
